# According to PubChem BioAssay AID493075 (Broad Institute, 2011):
# Activity calls are given as the source filed them.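 How the source made its calls: active means luminescence drop in every repeat test, with half-maximal concentration at most ten times the top dose; inconclusive means repeat tests disagree; inactive means inactive in every repeat test.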
# System: not listed separately
# Test: LuxS/LuxPQ-dependent luminescence inhibition, V. harveyi – dry powder, set 3, dose response (AID 493075)
# Conditions: Vibrio harveyi JMH597 AI-2 quorum sensing luminescence, 9 h; at 16 µM (top of the series)
row,SMILES,"activity change, negative = inhibition"
1,C[C@@H]1CCCCO[C@@H](CN(C)C(=O)Nc2ccc(C(F)(F)F)cc2)[C@H](C)CN([C@@H](C)CO)C(=O)c2cc(NC(=O)CCC(F)(F)F)ccc2O1,-7.66% (inactive)
2,C[C@H](CO)N1C[C@H](C)[C@@H](CN(C)C(=O)Nc2ccc(C(F)(F)F)cc2)Oc2ccc(NC(=O)Nc3ccc4c(c3)OCO4)cc2C1=O,-5.58% (inactive)
3,C[C@@H]1CN([C@@H](C)CO)C(=O)Cc2cc(NC(=O)CCN3CCOCC3)ccc2O[C@H]1CN(C)C(=O)Nc1ccc(F)cc1,-10.1% (inactive)
4,C[C@@H]1CCCCO[C@@H](CN(C)C(=O)Nc2cccc3ccccc23)[C@H](C)CN([C@H](C)CO)C(=O)c2cc(NC(=O)CCC(F)(F)F)ccc2O1,-4.12% (inactive)
5,Cc1ccc(S(=O)(=O)Nc2ccc3c(c2)C(=O)N([C@H](C)CO)C[C@H](C)[C@@H](CN(C)Cc2ccc(C(F)(F)F)cc2)O3)cc1,-11% (inactive)
6,CNC[C@@H]1Oc2ccc(NC(=O)C3CCCCC3)cc2CC(=O)N([C@@H](C)CO)C[C@H]1C,-5.97% (inactive)
7,C[C@@H]1CCCCO[C@@H](CN(C)Cc2ccncc2)[C@H](C)CN([C@H](C)CO)C(=O)c2cc(NC(=O)C3CCCCC3)ccc2O1,0.341% (inactive)
8,C[C@@H]1CCCCO[C@@H](CN(C)Cc2ccc(C(=O)O)cc2)[C@H](C)CN([C@H](C)CO)C(=O)c2cc(NC(=O)CCCN(C)C)ccc2O1,-4.89% (inactive)
9,C[C@@H]1CN([C@@H](C)CO)C(=O)Cc2cc(NC(=O)CCCN(C)C)ccc2O[C@H]1CN(C)CC1CCCCC1,5.19% (inactive)
10,Cc1ccc(S(=O)(=O)Nc2ccc3c(c2)CC(=O)N([C@@H](C)CO)C[C@@H](C)[C@H](CN(C)C(=O)Nc2ccc(F)cc2)O3)cc1,-1.6% (inactive)
11,O=S(=O)(Nc1ccccn1)c1ccccc1,-0.42% (inactive)
12,C[C@@H]1CN([C@H](C)CO)C(=O)c2cccc(NC(=O)Nc3ccc(C(F)(F)F)cc3)c2O[C@@H]1CN(C)C(=O)Nc1ccc(C(F)(F)F)cc1,-16.5% (inactive)
13,C[C@H](CO)N1C[C@H](C)[C@H](CN(C)Cc2ccc(C(=O)O)cc2)Oc2ncc(-c3ccc(C(=O)N(C)C)cc3)cc2C1=O,24.5% (inactive)
14,C[C@H]1CN([C@@H](C)CO)C(=O)c2cc(NC(=O)Nc3ccc4c(c3)OCO4)ccc2O[C@@H]1CN(C)C(=O)Nc1ccc(C(F)(F)F)cc1,-5.41% (inactive)
15,C[C@@H]1CN([C@@H](C)CO)C(=O)Cc2cc(NC(=O)CCN3CCOCC3)ccc2O[C@H]1CN(C)C(=O)Nc1ccc(C(F)(F)F)cc1,-2.52% (inactive)
16,C=Cn1c(C(=O)O)ccc1-c1cccs1,1.45% (inactive)

# System: Vibrio harveyi JMH597 AI-2 quorum sensing luminescence, 9 h
# Test: as above
# Conditions: not given
row,SMILES,AC50
1,O=S(=O)(Nc1cccnc1)c1ccc(Oc2ccccc2)cc1,0.627 µM
2,O=C1C=C/C(=C/Br)O1,3.78 µM
3,C[C@H](CO)N1C[C@H](C)[C@@H](CN(C)Cc2ccc3c(c2)OCO3)Oc2c(NC(=O)NC3CCCCC3)cccc2C1=O,7.05 µM
4,C=Cn1c(C(=O)O)ccc1-c1ccc(Cl)cc1,4.97 µM
5,CCc1ccc(-c2ccc(C(=O)O)n2C)cc1,4.46 µM
6,CCc1ccc(S(=O)(=O)Nc2ccc(Br)cn2)cc1,3.67 µM
7,C[C@@H]1CN([C@H](C)CO)C(=O)c2ccccc2-c2ccccc2CO[C@@H]1CN(C)Cc1ccc(Oc2ccccc2)cc1,12.7 µM
8,C=Cn1c(C(=O)O)ccc1-c1ccc(OC)cc1,8.59 µM
